In assay [1] the test system is rat liver cDNAs SEQ ID NOs: 1-61. It is filed as in vivo, Han/Wistar rat. As to conditions: Strain HW.
The test system is the same in assay [2]. It is filed as in vivo, Han/Wistar rat. As to conditions: Strain HW, Sex F.

Regarding `CC(C)OC(=O)C(C)(C)Oc1ccc(C(=O)c2ccc(Cl)cc2)cc1` [Feno, fenofibrate], in assay [1], the “Maximum Abundance, SEQ ID NO 20, Clone ID 700063569” value amounted to 3; the “Maximum Abundance, SEQ ID NO 30, Clone ID 700140375” value is 3; the “Maximum Abundance, SEQ ID NO 31, Clone ID 700140450” value is reported as 8; the “Maximum Abundance, SEQ ID NO 35, Clone ID 700179766” value was determined as 3. Further, in assay [1], the “Maximum Abundance, SEQ ID NO 37, Clone ID 700182016” value is 3; the “Maximum Abundance, SEQ ID NO 38, Clone ID 700185871” value is on record as 3; the “Maximum Abundance, SEQ ID NO 39, Clone ID 700198357” value turned out to be 3; the “Maximum Abundance, SEQ ID NO 40, Clone ID 700230123” value was 4. Besides, in assay [1], the “Maximum Abundance, SEQ ID NO 42, Clone ID 700250877” value is recorded as 3; the “Maximum Abundance, SEQ ID NO 45, Clone ID 700305380” value turned out to be 4; the “Maximum Abundance, SEQ ID NO 49, Clone ID 700478138” value is listed as 5; the “Maximum Abundance, SEQ ID NO 53, Clone ID 700818852” value is 5. In addition, in assay [1], the “Maximum Abundance, SEQ ID NO 54, Clone ID 700937735” value was 8; the “Maximum Abundance, SEQ ID NO 55, Clone ID 701197728” value turned out to be 3; the “Maximum Abundance, SEQ ID NO 60, Clone ID 701597659” value is given as 3. For the same compound, the “Maximum Abundance, SEQ ID NO 13, Clone ID 700135749” value in assay [2] is given as 4.

Regarding `NN` [Hydra, hydrazine], in assay [1], the “Maximum Abundance, SEQ ID NO 17, Clone ID 700059927” value came out at 4; the “Maximum Abundance, SEQ ID NO 23, Clone ID 700067778” value amounted to 3; the “Maximum Abundance, SEQ ID NO 24, Clone ID 700123633” value is on record as 3; the “Maximum Abundance, SEQ ID NO 28, Clone ID 700135850” value came out at 3. Besides, in assay [1], the “Maximum Abundance, SEQ ID NO 32, Clone ID 700144406” value is 4; the “Maximum Abundance, SEQ ID NO 33, Clone ID 700175249” value worked out at 7; the “Maximum Abundance, SEQ ID NO 61, Clone ID 701637512” value turned out to be 4. Also, in assay [2], the “Maximum Abundance, SEQ ID NO 12, Clone ID 700062506” value amounted to 3 and the “Maximum Abundance, SEQ ID NO 13, Clone ID 700135749” value turned out to be 4.

The values above are taken from patent US20030165854A1, “Marker genes responding to treatment with toxins” (priority 2000, published 2003).
